{"source": "patent US20210379077A1", "about": "“TOPOISOMERASE II CATALYTIC INHIBITOR COMPOUND THERAPEUTICS FOR CANCER TREATMENT, METHODS AND USES” (The University of British Columbia, priority 2018, published 2021)", "key": {"Topoisomerase II": {"target": "T1, Topoisomerase II (Homo sapiens, UniProt P11388)", "T1 construct": "purchased TopoGENE (TopoGEN) TG2000H / kit TG1001", "T1 sequence (P11388 whole entry)": "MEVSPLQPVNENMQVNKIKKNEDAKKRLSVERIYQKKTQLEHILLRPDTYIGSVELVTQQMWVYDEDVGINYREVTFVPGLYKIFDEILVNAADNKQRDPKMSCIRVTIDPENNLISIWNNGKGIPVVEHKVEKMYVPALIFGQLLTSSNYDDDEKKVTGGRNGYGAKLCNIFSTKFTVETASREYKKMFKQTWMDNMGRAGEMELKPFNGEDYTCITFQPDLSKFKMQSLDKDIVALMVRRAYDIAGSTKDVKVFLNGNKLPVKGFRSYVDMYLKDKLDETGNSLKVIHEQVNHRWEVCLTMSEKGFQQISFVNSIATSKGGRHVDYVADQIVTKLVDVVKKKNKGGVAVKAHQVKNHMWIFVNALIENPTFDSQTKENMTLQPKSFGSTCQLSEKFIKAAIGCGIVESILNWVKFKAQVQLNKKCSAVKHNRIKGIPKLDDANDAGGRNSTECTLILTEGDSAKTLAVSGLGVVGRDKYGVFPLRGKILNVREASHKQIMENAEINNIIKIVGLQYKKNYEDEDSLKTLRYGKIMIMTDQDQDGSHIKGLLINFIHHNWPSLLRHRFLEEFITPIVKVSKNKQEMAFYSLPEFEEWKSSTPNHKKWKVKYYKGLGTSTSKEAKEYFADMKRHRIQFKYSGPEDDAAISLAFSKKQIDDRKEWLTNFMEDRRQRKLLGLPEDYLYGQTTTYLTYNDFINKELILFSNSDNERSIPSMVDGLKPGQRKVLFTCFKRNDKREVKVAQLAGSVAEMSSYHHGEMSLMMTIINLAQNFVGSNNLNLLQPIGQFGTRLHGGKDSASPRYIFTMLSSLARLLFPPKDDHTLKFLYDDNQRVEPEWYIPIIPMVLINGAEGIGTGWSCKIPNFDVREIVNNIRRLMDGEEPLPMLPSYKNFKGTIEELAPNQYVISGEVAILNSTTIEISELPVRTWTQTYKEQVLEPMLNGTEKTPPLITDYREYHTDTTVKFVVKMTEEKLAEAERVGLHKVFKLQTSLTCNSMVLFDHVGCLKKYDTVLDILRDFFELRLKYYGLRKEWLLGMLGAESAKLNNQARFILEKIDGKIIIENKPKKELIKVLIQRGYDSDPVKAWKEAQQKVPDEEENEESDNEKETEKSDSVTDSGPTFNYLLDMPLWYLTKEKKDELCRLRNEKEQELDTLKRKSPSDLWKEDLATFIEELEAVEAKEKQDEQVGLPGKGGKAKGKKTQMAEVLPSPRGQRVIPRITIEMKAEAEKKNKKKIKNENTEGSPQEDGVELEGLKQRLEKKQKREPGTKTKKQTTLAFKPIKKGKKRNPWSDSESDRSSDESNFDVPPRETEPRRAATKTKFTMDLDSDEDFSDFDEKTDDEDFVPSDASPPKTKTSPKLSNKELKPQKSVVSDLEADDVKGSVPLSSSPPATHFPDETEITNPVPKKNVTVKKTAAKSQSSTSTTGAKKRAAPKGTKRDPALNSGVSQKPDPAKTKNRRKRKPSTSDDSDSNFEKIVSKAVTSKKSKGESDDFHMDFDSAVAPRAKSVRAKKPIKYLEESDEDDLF", "experiment": "Topoisomerase II inhibition screening (supercoiled plasmid relaxation, then kDNA decatenation)", "type": "biochemical", "set-up": "key to TOP2 Inhib.: Y is an indication that activity was found", "protocol": "In vitro Topo II activity assays—K-DNA decatenation assays were performed using the human Topo II assay kit (TG1001, TopoGENE™) with Etoposide and ICRF193 as poison and catalytic inhibitors respectively. DNA relaxation assays were performed by incubating the supercoiled pHOT™ plasmid with human Topo IIα (TG2000H™, TopoGENE™) at 37 degrees for one hour. Reactions were stopped by adding 10% SDS, EDTA and proteinase K. Plasmid DNAs were separated on DNA agarose gel and stained with ethidium bromide for visualization.\nMedium Throughput Screening Assays A supercoiled plasmid relaxation assay was used as a first, course filter to determine candidate small molecules. Small molecule candidates that were sufficiently active in the first round screening were then subject to the kDNA decatenation assay.\nSecond Round Screening With the discovered active compounds 19 and 23, a new screen was initiated to look for similar molecules. For this, the shape similarity screening program ROCS™^10 was used The compounds chosen for the ROCS™ search was based on the docking conformation of Compound 23. The ZINC-15 library filtered down to 6 million molecules described previously was used for this screening. The top 62 molecules were hand-picked based on their ROCS™ similarity as well as their docking scores. These molecules were ordered and tested with the same medium throughput assays previously described. A large enrichment in the proportion of active molecules was observed, of close to 10-fold relative to the first round, validating the virtual screening pipeline."}, "Cancer Cell": {"test_system": "Cancer Cell", "experiment": "Cancer cell growth inhibition", "type": "cell-based", "set-up": "key: Y is an indication that activity was found", "protocol": "BrDU incorporation and cell proliferation assays—Cell proliferation rates were measured by using the CellTitre™ 96 AqueousOne™ kit (Promega™) and bromodeoxyuridine (BrdU) assay kit (Millipore™) according to the manufacturer's protocol, with minor modifications as we have previously described by Li H. et al.^19"}, "pHOT plasmid DNA": {"test_system": "pHOT plasmid DNA", "experiment": "DNA intercalating assay", "conditions": "0, 5, 10, 25 and 50 μM, compared with m-AMSA", "protocol": "DNA samples were separated by electrophoresis on 0.8% agarose gels and visualized by ethium bromide staining. The positions of K-DNA and decatenated (D) DNA products are marked by arrows. Experiments were repeated five times and the densitometry of the D bands were used to establish an inhibition curve to calculate IC50. (b) Supercoiled pHOT™ plasmid was incubated with human TOP2a in the presence of 50 μM Etopside, 50 uM ICRF193 or 0-50 μM of compound #60 (Top60) compound at 37° C. for 1 hour. DNA products were separated by electrophoresis on 1% agarose gels and visualized by ethium bromide staining. The positions of supercoiled (SC), nicked (N), and relaxed (R) DNA bands are marked by arrows. Experiments were repeated five times and the densitometiy of the SC bands were used to establish an inhibition curve to calculate IC50. (c) Supercoiled pHOT™ plasmid was incubated with Topoisomerase I prior to addition of either mAMSA or compound #60 (Top60) at concentrations of 0, 5, 10, 25 and 50 μM at 37° C. for 30 minutes. […]\nTop60 is a catalytic inhibitor of Topo II To verify that our lead Compound 60(Top60), the formation of ds DNA breaks was assayed both in and outside of cells. […] Furthermore, H2AXγ protein expression was assessed by Western blot to determine if the lead compound could cause DNA damage in cells, and compared to Etoposide as a control (FIG. 3b). […]"}, "Topo IIα": {"target": "Topo IIα (Homo sapiens, UniProt P11388)", "sequence (P11388 whole entry)": "as above", "experiment": "Chromatin fraction assay", "type": "cell-based", "set-up": "endogenous in cells; host or cells: K562", "conditions": "K562 cells, 0, 1 and 10 μM, 24 hours", "protocol": "Whole cell lyses were collected and used to measure protein levels of TOP2α, TOP2β with β-Actin as a loading control; (b) K562 cells were treated with 0, 1, and 10 μM of Top60 for 24 hours. Protein lyses were collected from soluble nuclear extract, chromatin fraction or whole cell lysate. TOP2α and TOP2β protein levels were determined by immunoblotting with Lamin A/C, Histone H3 and β-Actin as loading controls; and (c) Etoposide-resistant K562 cell line was established by treating cells with 0.5 μM of Etoposide for 6 months. TOP2α, TOP2β, and β-actin protein levels were determined by immunoblotting. Etoposide-resistant K562 cells were treated with 0, 1, 10, 15 and 20 μM of Top60, Etoposide or ICRF187 for 48 hours. Cell proliferation rates were determined by MTS assays.\nThermal shift and chromatin fraction assays—In the thermal shift assays, cells were treated with vehicle or compound #60 (Top60) for 1 hour, split into equal aliquots to be heated at 37 to 46 degrees in a PCR machine. Protein lyses were collected to perform immunoblotting assays with Topo II antibodies. In the chromatin fraction assays, cells were treated with vehicle or compound #60 (Top60). Both soluble and chromatin associated proteins were fractioned following the protocol described by Wysocka J et al.^18. Protein lyses were collected to perform immunoblotting assays with Topo II antibodies. […]"}}}
{"smiles": "O=C(Nc1ccc(Nc2ccccc2)cc1)c1ccc[nH]c1=S", "note": "[Compound 60]", "values": [{"measurement": "TOP2 Inhib.", "setting": "Topoisomerase II", "value": "Y"}, {"measurement": "inhibitory activity against Topo II compared with ICRF-193", "setting": "Topoisomerase II", "value": "more potent inhibitory activity against Topo II than ICRF-193"}, {"measurement": "IC50 of Topo II inhibition", "setting": "Topoisomerase II; assay not specified", "value": "nanomolar"}, {"measurement": "relative activity among compounds tested in the screening round", "setting": "Topoisomerase II; medium throughput relaxation and kDNA decatenation assays", "value": "most active of the group"}, {"measurement": "Topoisomerase II inhibitory activity", "setting": "Topoisomerase II; result in words", "value": "inhibits TOP2 activity"}, {"measurement": "Cancer Cell Growth Inhib.", "setting": "Cancer Cell", "value": "Y"}, {"measurement": "DNA intercalation", "setting": "pHOT plasmid DNA", "value": "not an intercalator"}, {"measurement": "chromatin binding of Topo IIα", "setting": "Topo IIα", "value": "became unbound from chromatin"}]}
